Experimental data: patent publication US10816552B2 (The Governing Council of the University of Toronto, priority 2014, dated 2020)

How the values were obtained:
[1] = UV-Vis stability of Telox-2 in aqueous buffer; assay type: physicochemical; settings: 200 μM, 0.01% DMSO in phosphate-buffered saline
Protocol: Concentration of Telox-2=200 μM (0.01% DMSO in phosphate-buffered saline). The small spectrum identifies the unique absorptions of the tellurophene and nitroimidazole functionalities.
An orthogonal stability assay using UV-Vis spectroscopy was performed to corroborate the NMR stability findings (FIG. 6). In this assay, UV-Vis spectra of Telox-2 were recorded at a fixed concentration in aqueous buffer over a period of 3 days. Loss of either heterocycle, tellurophene or nitroimidazole, as a result of degradation would be expected to cause a decrease in absorbance at 282 and/or 325 nm respectively.

[2] = 1H NMR stability of Telox-2 in D2O (0.01% dDMSO); assay type: physicochemical
Excerpt: To investigate the stability of Telox-2 compared to Telox ^1H NMR spectra of Telox-2 were collected over a period of 1 week under biologically-relevant conditions (0.01% dDMSO in D2O).

Jurkat cells = assay: Metabolic toxicity assay (WST-1) in Jurkat cells; assay type: cell-based; settings: Jurkat cells, 24 hour incubation, WST-1
Protocol: FIGS. 7A, B and C show a) and b) the cell proliferation rate of HCT116 cells as a function of time in the presence of various concentrations of the exemplary compound, Telox-2 (confluency analysis); and c) the metabolic toxicity of the exemplary compound, Telox-2, in Jurkat cells as measured by reduction of WST-1. Cells were incubated with Telox-2 for 24 hours prior to a 30 minute exposure to WST-1.
A 96 well clear fluorometer plate was loaded with 200 μL of Jurkat cells at a culture density of 1×10^6 cells per mL. To each well was added an appropriate amount of a stock solution of Telox/Telox2 in sterile DMSO to reach a desired concentration of Telox/Telox2 (1-1000 micromole). The concentration of DMSO was 1% in all wells. Cells were allowed to incubate for 24 h at 37° C. under normal atmosphere, after which 20 μL of a commercially available solution of WST-1 in PBS (Roche Diagnostics, product #05015944001) was added to each well (gentle pipetting evenly distributed the reagent throughout the well). Cells were allowed to incubate for a further 0.5 h at 37° C. under normal atmosphere, followed by subsequent measurement of the absorbance of each well at 450 nm using a TECAN Safire 2 plate reader. Data was background corrected vs. wells that contained cell growth media (without cells), an appropriate concentration of Telox2, a final concentration of DMSO=1%, and WST-1. Background correction wells were incubated in the same manner as described for cell-positive wells.
To investigate the organotellurium compounds of study as potential probe moieties for MC, the metabolic toxicity of the compounds was evaluated. Organotellurium compounds are often described as toxic, with aryl telluroethers showing cellular toxicity below 100 μM across a range of cell lines under different assay conditions.^9-11,38,39 The toxicity of compounds 8-11 was investigated in a commonly used Jurkat cell line after a 24 hour incubation using the metabolic probe WST-1 (Roche Diagnostics, Laval, Quebec) as per manufacturer's instructions. As compounds 8, 9 and 10 are expected to show degradation over the time frame of the toxicity assay, based on the NMR stability studies, these experiments show the relative toxicity of the compounds and their resulting degradation products (Table 2). […] The LD50 values of the exemplary organotellurium compounds of the present application provide promise for their use as activity based MC probes since the general MC experiment can be achieved at concentrations of ˜100 μM.^5

O=[N+]([O-])c1nccn1CCc1ccc[te]1 [Telox-2, 2-nitro-1-(2-(tellurophen-2-yl)ethyl)-1H-imidazole]
change in absorbance at 282 and/or 325 nm over 3 days [1]: No change in absorbance | degradation by 1H NMR over 1 week ([2]; 0.01% dDMSO in D2O, 1 week, 200 μM): no observable degradation | aggregate or micelle formation in aqueous solution (1H NMR peak broadening) ([2]; high concentrations (2 mM)): does not form aggregates or micelles | LD50 (metabolic toxicity) (Jurkat cells): ~270 µM
